Values of other authors, collected in patent US20230364004A1, “STABLE COMPOSITIONS CONTAINING A CANNABINOID” (ANGROW COMPANY LIMITED, priority 2022, published 2023).

Conditions: within 24 hours, simulated physiological condition (PH 7.4 and 37° C.)

C=C(C)[C@@H]1CCC(C)=C[C@H]1c1c(O)cc(CCCCC)cc1O [CBD, cannabidiol]
CBD degraded: 10%
